What was measured:
[1] = molecular target: cMET (Homo sapiens, UniProt P08581); experiment: Inhibitory activity against MET (cMET), TR-FRET kinase assay; format: biochemical; conditions: TR-FRET enzyme assay
Procedure: In addition, in order to measure the enzyme activity inhibition for cMET, the evaluation was performed in the same manner as the enzyme activity inhibition measurement experiment for RON.
(§1) Specifically, the compound was prepared to a concentration of 1 mM in 100% DMSO and was diluted 10 times in a stepwise manner through 3-fold dilution. The compound (2 ul) diluted in a stepwise manner was added to a 96-well-plate containing 48 ul of a 1×kinase reaction buffer (50 mM HEPES (pH 7.4), 0.05% BSA, 0.005% Tween-20, 1 mM DTT, 0.5 mM MnCl2, 20 mM MgCl2).
The cMET protein was diluted to a concentration of 263 nM in a cMET storage buffer (50 mM Tris-HCl (pH 7.5), 150 mM NaCl, 0.05% Brij35, 1 mM DTT, 10% Glycerol), and then diluted again to a concentration of 2 nM in a 1×kinase reaction buffer. As a substrate cocktail, a MET-specific substrate mixed solution (5 uM TK peptide, 10 mM ATP) was prepared at a concentration 2 times the final reaction concentration.
(§2) Thereafter, a 384-well-plate was prepared, and 2.5 μl of each of the diluted compounds of Examples was added to a corresponding well of experimental group wells, and 2.5 μl of a 4% DMSO solution was dispensed into high control wells and low control wells.
(§3) Thereafter, 2.5 μL of 2 nM cMET was dispensed into each of the high control wells and the experimental group wells, and 2.5 μL of the 1× kinase reaction buffer was added to the low control wells, and all the wells were centrifuged at room temperature for 40 seconds at 1,000 RPM, and then incubated at room temperature for 20-30 minutes. Then, 5 μL of the substrate cocktail (2×) was dispensed into each well, and all the wells were centrifuged at room temperature for 40 seconds at 1,000 RPM, and then incubated at room temperature for 60 minutes. Thereafter, 5 μL of 90 mM EDTA was added to each well to terminate the reaction, and all the wells were then incubated again at room temperature for 5 minutes. Thereafter, 5 μL of a 4×phosphotyrosine antibody (Perkin Elmer) containing europium was added to each well, and all the wells were then incubated at room temperature for 60 minutes. After the incubation, the 384-well-plate was read with the Vison plate reader. In this case, the excitation wavelength was 340 nm, and the emission wavelength was 620 nm and 665 nm. The pe50 value of each compound of Examples was derived using the GraphPd Prism7 program.

[2] = molecular target: RON (Homo sapiens, UniProt Q04912); experiment: Inhibitory activity against RON, TR-FRET kinase assay; format: biochemical; conditions: TR-FRET enzyme assay
Procedure: In order to measure the inhibitory activity of each of the compounds of Examples against RON, the IC50 of each of the compounds was measured using Time-resolved fluorescence energy transfer (TR-FRET).
as §1, with “a 1× kinase” for “a 1×kinase”, “7.4), 0.01%” for “7.4), 0.05% BSA, 0.005%”, “Tween-20, 5” for “Tween-20, 1”, “mM Na3VO4, 2 mM EGTA, 10” for “mM MnCl2, 20”
The RON protein was diluted to a concentration of 49.3 nM in a RON storage buffer (50 mM Tris-HCl (pH 7.5), 150 mM NaCl, 0.5 mM EDTA, 0.02% Triton X-100), and then diluted again to a concentration of 0.4 nM in a 1×kinase reaction buffer. As a substrate cocktail, a RON-specific substrate mixed solution (40 uM ULight-labeled Poly GT, 100 nM ATP) was prepared at a concentration 2 times the final reaction concentration.
as §2
as §3, with “of 0.4” for “of 2”, “nM RON” for “nM cMET”, “of 30” for “of 90”, “The IC50” for “The pe50”

Chain of cMET (P08581 25-1390): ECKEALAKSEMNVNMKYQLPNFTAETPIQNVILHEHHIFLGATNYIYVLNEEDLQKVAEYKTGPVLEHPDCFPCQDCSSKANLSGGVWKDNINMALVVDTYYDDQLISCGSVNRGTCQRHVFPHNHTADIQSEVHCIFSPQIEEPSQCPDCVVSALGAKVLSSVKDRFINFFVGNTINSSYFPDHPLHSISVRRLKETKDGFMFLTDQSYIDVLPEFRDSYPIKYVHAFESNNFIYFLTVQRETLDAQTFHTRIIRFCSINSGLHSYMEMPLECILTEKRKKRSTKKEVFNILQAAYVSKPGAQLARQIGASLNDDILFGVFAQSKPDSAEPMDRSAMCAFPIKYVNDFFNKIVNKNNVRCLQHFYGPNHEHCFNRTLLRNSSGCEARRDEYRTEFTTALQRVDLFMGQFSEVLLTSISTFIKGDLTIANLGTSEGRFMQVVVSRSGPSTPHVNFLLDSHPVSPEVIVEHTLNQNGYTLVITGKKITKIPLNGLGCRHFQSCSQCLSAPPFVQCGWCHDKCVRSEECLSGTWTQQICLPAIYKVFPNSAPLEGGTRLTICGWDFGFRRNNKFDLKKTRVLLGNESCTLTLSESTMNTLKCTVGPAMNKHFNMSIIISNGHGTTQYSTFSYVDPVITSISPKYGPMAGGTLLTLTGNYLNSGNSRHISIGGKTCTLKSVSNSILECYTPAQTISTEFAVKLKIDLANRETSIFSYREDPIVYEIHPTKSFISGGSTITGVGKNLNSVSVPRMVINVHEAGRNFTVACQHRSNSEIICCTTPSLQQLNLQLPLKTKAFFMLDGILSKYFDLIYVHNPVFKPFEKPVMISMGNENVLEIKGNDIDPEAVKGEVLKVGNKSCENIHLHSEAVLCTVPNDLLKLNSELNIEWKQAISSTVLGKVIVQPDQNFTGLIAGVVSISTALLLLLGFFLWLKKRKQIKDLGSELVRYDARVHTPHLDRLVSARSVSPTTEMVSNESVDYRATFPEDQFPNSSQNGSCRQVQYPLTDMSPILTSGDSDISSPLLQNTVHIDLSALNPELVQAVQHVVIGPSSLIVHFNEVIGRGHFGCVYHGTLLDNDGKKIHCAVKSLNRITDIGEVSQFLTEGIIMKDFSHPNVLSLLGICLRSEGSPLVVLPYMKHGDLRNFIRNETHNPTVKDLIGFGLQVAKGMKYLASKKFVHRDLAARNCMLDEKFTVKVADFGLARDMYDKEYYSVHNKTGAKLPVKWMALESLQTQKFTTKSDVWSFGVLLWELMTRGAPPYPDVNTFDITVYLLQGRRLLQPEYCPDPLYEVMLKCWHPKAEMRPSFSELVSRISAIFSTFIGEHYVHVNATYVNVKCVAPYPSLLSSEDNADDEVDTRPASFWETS
Chain of RON (Q04912 25-1400, species assumed): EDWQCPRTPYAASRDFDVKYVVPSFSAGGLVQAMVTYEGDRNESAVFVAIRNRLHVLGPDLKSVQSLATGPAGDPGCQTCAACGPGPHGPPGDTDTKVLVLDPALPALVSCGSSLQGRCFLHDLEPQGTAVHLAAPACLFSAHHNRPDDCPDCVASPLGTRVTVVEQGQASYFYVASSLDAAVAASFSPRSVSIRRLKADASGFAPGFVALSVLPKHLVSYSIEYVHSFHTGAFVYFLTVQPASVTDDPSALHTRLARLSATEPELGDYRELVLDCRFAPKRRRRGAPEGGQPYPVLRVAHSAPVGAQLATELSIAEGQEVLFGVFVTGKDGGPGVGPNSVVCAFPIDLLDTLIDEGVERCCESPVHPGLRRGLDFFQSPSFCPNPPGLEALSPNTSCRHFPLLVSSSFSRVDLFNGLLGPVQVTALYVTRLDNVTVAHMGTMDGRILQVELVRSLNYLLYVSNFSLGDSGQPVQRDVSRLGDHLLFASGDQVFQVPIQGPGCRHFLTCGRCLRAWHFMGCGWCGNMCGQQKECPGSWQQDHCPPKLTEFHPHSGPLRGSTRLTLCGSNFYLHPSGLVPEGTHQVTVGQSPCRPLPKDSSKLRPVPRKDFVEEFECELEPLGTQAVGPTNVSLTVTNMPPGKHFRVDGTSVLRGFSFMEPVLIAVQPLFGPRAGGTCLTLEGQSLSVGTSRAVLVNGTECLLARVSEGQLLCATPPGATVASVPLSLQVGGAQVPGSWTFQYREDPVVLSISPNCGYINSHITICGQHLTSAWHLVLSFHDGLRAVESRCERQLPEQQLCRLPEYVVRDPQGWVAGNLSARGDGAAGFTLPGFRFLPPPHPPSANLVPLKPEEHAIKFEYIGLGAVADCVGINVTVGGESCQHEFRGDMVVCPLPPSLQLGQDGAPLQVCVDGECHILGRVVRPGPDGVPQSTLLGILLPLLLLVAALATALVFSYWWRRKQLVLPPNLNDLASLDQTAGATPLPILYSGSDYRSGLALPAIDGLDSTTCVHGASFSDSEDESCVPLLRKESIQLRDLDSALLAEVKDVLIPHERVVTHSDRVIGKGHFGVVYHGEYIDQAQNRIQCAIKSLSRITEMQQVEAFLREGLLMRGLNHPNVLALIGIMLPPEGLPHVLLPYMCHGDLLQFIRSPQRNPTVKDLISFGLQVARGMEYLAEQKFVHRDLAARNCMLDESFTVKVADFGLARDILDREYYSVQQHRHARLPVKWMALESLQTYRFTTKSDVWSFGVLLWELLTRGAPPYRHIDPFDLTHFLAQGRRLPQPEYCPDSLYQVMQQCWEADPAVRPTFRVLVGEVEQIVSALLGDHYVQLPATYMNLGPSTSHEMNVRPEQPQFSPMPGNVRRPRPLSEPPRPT

Row | Compound | IC50 [1] [µM] | IC50 [2] [µM]
1 | Nc1ncnc(Oc2ccc(NC(=O)c3nc(-c4ccccc4)cs3)cc2F)c1Cl [Example 41, N-[4-(6-amino-5-chloro-pyrimidin-4-yl)oxy-3-fluoro-phenyl]-4-phenyl-thiazole-2-carboxamide] | > 5 | > 5
2 | Cn1cc(-n2ncc(C(=O)Nc3ccc(Oc4ncnc(N)c4Cl)c(F)c3)c2C(F)(F)F)cn1 [Example 42, N-[4-(6-amino-5-chloro-pyrimidin-4-yl)oxy-3-fluoro-phenyl]-1-(1-methylpyrazol-4-yl)-5-(trifluoromethyl)pyrazole-4-carboxamide] | > 5 | 0.5 to 5
3 | Nc1ncnc(Oc2ccc(NC(=O)c3cnn(-c4ccccn4)c3C(F)(F)F)cc2F)c1Cl [Example 43, N-(4-((6-amino-5-chloropyrimidin-4-yl)oxy)-3-fluorophenyl)-1-(pyridin-2-yl)-5-(trifluoromethyl)-1H-pyrazole-4-carboxamide] | > 5 | < 0.05
4 | Nc1ncnc(Oc2ccc(NC(=O)c3cnn(-c4cncnc4)c3C(F)(F)F)cc2F)c1Cl [Example 44, N-[4-(6-amino-5-chloro-pyrimidin-4-yl)oxy-3-fluoro-phenyl]-1-pyrimidin-5-yl-5-(trifluoromethyl)pyrazole-4-carboxamide] | > 5 | 0.05 to 0.5
5 | Nc1ncnc(Oc2ccc(NC(=O)c3cnn(-c4ncccc4F)c3C(F)(F)F)cc2F)c1Cl [Example 45, N-[4-(6-amino-5-chloro-pyrimidin-4-yl)oxy-3-fluoro-phenyl]-1-(3-fluoro-2-pyridyl)-5-(trifluoromethyl)pyrazole-4-carboxamide] | 0.5 to 5 | < 0.05
6 | Cc1cccnc1-n1ncc(C(=O)Nc2ccc(Oc3ncnc(N)c3Cl)c(F)c2)c1C(F)(F)F [Example 46, N-[4-(6-amino-5-chloro-pyrimidin-4-yl)oxy-3-fluoro-phenyl]-1-(3-methyl-2-pyridyl)-5-(trifluoromethyl)pyrazole-4-carboxamide] | > 5 | 0.05 to 0.5
7 | Cc1ccnc(-n2ncc(C(=O)Nc3ccc(Oc4ncnc(N)c4Cl)c(F)c3)c2C(F)(F)F)c1 [Example 47, N-[4-(6-amino-5-chloro-pyrimidin-4-yl)oxy-3-fluoro-phenyl]-1-(4-methyl-2-pyridyl)-5-(trifluoromethyl)pyrazole-4-carboxamide] | > 5 | 0.05 to 0.5
8 | Cc1ccc(-n2ncc(C(=O)Nc3ccc(Oc4ncnc(N)c4Cl)c(F)c3)c2C(F)(F)F)nc1 [Example 48, N-[4-(6-amino-5-chloro-pyrimidin-4-yl)oxy-3-fluoro-phenyl]-1-(5-methyl-2-pyridyl)-5-(trifluoromethyl)pyrazole-4-carboxamide] | > 5 | 0.5 to 5
9 | Cc1cccc(-n2ncc(C(=O)Nc3ccc(Oc4ncnc(N)c4Cl)c(F)c3)c2C(F)(F)F)n1 [Example 49, N-[4-(6-amino-5-chloro-pyrimidin-4-yl)oxy-3-fluoro-phenyl]-1-(6-methyl-2-pyridyl)-5-(trifluoromethyl)pyrazole-4-carboxamide] | > 5 | 0.5 to 5
10 | Nc1ncnc(Oc2ccc(NC(=O)c3cnn(-c4ccc(F)cn4)c3C(F)(F)F)cc2F)c1Cl [Example 50, N-[4-(6-amino-5-chloro-pyrimidin-4-yl)oxy-3-fluoro-phenyl]-1-(5-fluoro-2-pyridyl)-5-(trifluoromethyl)pyrazole-4-carboxamide] | > 5 | 0.05 to 0.5
11 | Nc1ncnc(Oc2ccc(NC(=O)c3cnn(-c4ncccc4Cl)c3C(F)(F)F)cc2F)c1Cl [Example 51, N-[4-(6-amino-5-chloro-pyrimidin-4-yl)oxy-3-fluoro-phenyl]-1-(3-chloro-2-pyridyl)-5-(trifluoromethyl)pyrazole-4-carboxamide] | 0.5 to 5 | < 0.05
12 | Nc1ncnc(Oc2ccc(NC(=O)c3cnn(-c4cc(Cl)ccn4)c3C(F)(F)F)cc2F)c1Cl [Example 52, N-[4-(6-amino-5-chloro-pyrimidin-4-yl)oxy-3-fluoro-phenyl]-1-(4-chloro-2-pyridyl)-5-(trifluoromethyl)pyrazole-4-carboxamide] | > 5 | 0.5 to 5
13 | Nc1ncnc(Oc2ccc(NC(=O)c3cnn(-c4ncccc4C(F)(F)F)c3C(F)(F)F)cc2F)c1Cl [Example 53, N-[4-(6-amino-5-chloro-pyrimidin-4-yl)oxy-3-fluoro-phenyl]-5-(trifluoromethyl)-1-[3-(trifluoromethyl)-2-pyridyl]pyrazole-4-carboxamide] | 0.5 to 5 | 0.05 to 0.5
14 | COc1cccnc1-n1ncc(C(=O)Nc2ccc(Oc3ncnc(N)c3Cl)c(F)c2)c1C(F)(F)F [Example 54, N-[4-(6-amino-5-chloro-pyrimidin-4-yl)oxy-3-fluoro-phenyl]-1-(3-methoxy-2-pyridyl)-5-(trifluoromethyl)pyrazole-4-carboxamide] | > 5 | 0.05 to 0.5
15 | CCc1ccnc(-n2ncc(C(=O)Nc3ccc(Oc4ncnc(N)c4Cl)c(F)c3)c2C(F)(F)F)c1 [Example 55, N-[4-(6-amino-5-chloro-pyrimidin-4-yl)oxy-3-fluoro-phenyl]-1-(4-ethyl-2-pyridyl)-5-(trifluoromethyl)pyrazole-4-carboxamide] | > 5 | 0.5 to 5
16 | Nc1ncnc(Oc2ccc(NC(=O)c3cnn(-c4cccnc4)c3C(F)(F)F)cc2F)c1Cl [Example 56, N-[4-(6-amino-5-chloro-pyrimidin-4-yl)oxy-3-fluoro-phenyl]-1-(3-pyridyl)-5-(trifluoromethyl)pyrazole-4-carboxamide] | > 5 | 0.05 to 0.5
17 | Nc1ncnc(Oc2ccc(NC(=O)c3cnn(-c4ccncc4)c3C(F)(F)F)cc2F)c1Cl [Example 57, N-[4-(6-amino-5-chloro-pyrimidin-4-yl)oxy-3-fluoro-phenyl]-1-(4-pyridyl)-5-(trifluoromethyl)pyrazole-4-carboxamide] | > 5 | 0.5 to 5
18 | CCc1cccnc1-n1ncc(C(=O)Nc2ccc(Oc3ncnc(N)c3Cl)c(F)c2)c1C(F)(F)F [Example 58, N-[4-(6-amino-5-chloro-pyrimidin-4-yl)oxy-3-fluoro-phenyl]-1-(3-ethyl-2-pyridyl)-5-(trifluoromethyl)pyrazole-4-carboxamide] | > 5 | 0.05 to 0.5
19 | Nc1ncnc(Oc2ccc(NC(=O)c3cnn(-c4ncccn4)c3C(F)(F)F)cc2F)c1Cl [Example 59, N-[4-(6-amino-5-chloro-pyrimidin-4-yl)oxy-3-fluoro-phenyl]-1-pyrimidin-2-yl-5-(trifluoromethyl)pyrazole-4-carboxamide] | > 5 | < 0.05
20 | Nc1ncnc(Oc2ccc(NC(=O)c3cnn(-c4cccnn4)c3C(F)(F)F)cc2F)c1Cl [Example 60, N-[4-(6-amino-5-chloro-pyrimidin-4-yl)oxy-3-fluoro-phenyl]-1-pyridazin-3-yl-5-(trifluoromethyl)pyrazole-4-carboxamide] | > 5 | 0.05 to 0.5
